Measured values published in patent US6403791B1, “Heterocyclic compounds and their therapeutic use” (Darwin Discovery, Ltd., priority 2000, dated 2002).

Assay: Oral pharmacokinetics (Cmax) in guinea pigs
Settings: guinea pig, in vivo, dosed orally at 3 mg/kg to guinea pigs

Structure (SMILES): CCc1nc2c(OC(F)F)ccc(C(=O)Nc3c(C)noc3C)c2o1 [Example 1, 4-Difluoromethoxy-2-ethylbenzooxazole-7-carboxylic acid (3,5-dimethylisoxazole-4-yl)-amide]
- Cmax: 4.37 µg/mL
